Data: ChEMBL document CHEMBL3885861, “Open TG-GATES”

Species on record: Rattus norvegicus
Assay: Open TG-GATES - Regimen: Daily Repeat
Assay type: toxicity, organism-based, Sprague-Dawley
Parameters: regimen Daily Repeat, gender Male, age 6 weeks
Conditions: in vivo, po, 0 mg/kg, route gavage, dose level Control; for APTT / Bas / Eos / Fbg / Hb / Ht / Lym / MCH / MCHC / MCV / Mono / Neu / PT / Plat / RBC / Ret / WBC: tissue Blood; for KIDNEY_L / KIDNEY_R / KIDNEY_TOTAL: tissue Kidney; for LIVER: tissue Liver; for A/G / ALP / ALT / AST / BUN / CRE / Ca / Cl / DBIL / GLC / IP / K / LDH / Na / PL / RALB / TBIL / TC / TG / TP / gamma-GTP: tissue Plasma

For O=C(OC[C@H]1O[C@@H](OC(=O)c2cc(O)c(O)c(OC(=O)c3cc(O)c(O)c(O)c3)c2)[C@H](OC(=O)c2cc(O)c(O)c(OC(=O)c3cc(O)c(O)c(O)c3)c2)[C@@H](OC(=O)c2cc(O)c(O)c(OC(=O)c3cc(O)c(O)c(O)c3)c2)[C@@H]1OC(=O)c1cc(O)c(O)c(OC(=O)c2cc(O)c(O)c(O)c2)c1)c1cc(O)c(O)c(OC(=O)c2cc(O)c(O)c(O)c2)c1 [TANNIC ACID], the TERMINAL_BW (72 h, time 3 day) was 216 g, the APTT (72 h, time 3 day) was 17.1 s and the Bas (72 h, time 3 day) was 0%. It also gave an Eos (72 h, time 3 day) of 1%, a Fbg (72 h, time 3 day) of 245.4 mg/dL and a Hb (72 h, time 3 day) of 13.2 g/dL. For the same compound, the Ht (72 h, time 3 day) was 39.3%, the Lym (72 h, time 3 day) was 77.6% and the MCH (72 h, time 3 day) was 21.8 pg. It also gave an MCHC (72 h, time 3 day) of 33.4%, an MCV (72 h, time 3 day) of 65.2 fL and a Mono (72 h, time 3 day) of 6.4%. The Neu (72 h, time 3 day) was 15%, the PT (72 h, time 3 day) was 11.7 s and the Plat (72 h, time 3 day) was 118.4 x10_4/uL. The RBC (72 h, time 3 day) was 603.8 x10_4/ul, the Ret (72 h, time 3 day) was 8.3% and the WBC (72 h, time 3 day) was 101.4 x10_2/uL. It also gave a KIDNEY_L (72 h, time 3 day) of 0.9 g, a KIDNEY_R (72 h, time 3 day) of 1 g and a KIDNEY_TOTAL (72 h, time 3 day) of 1.9 g. The LIVER (72 h, time 3 day) was 10.5 g, the A/G (72 h, time 3 day) was 2.1 and the ALP (72 h, time 3 day) was 883.4 IU/L. For the same compound, the ALT (72 h, time 3 day) was 36.2 IU/L, the AST (72 h, time 3 day) was 62.2 IU/L and the BUN (72 h, time 3 day) was 18 mg/dL. The CRE (72 h, time 3 day) was 0.5 mg/dL, the Ca (72 h, time 3 day) was 10.9 mg/dL and the Cl (72 h, time 3 day) was 104.2 meq/L. The DBIL (72 h, time 3 day) was 0 mg/dL, the GLC (72 h, time 3 day) was 202 mg/dL and the IP (72 h, time 3 day) was 8 mg/dL. For the same compound, the K (72 h, time 3 day) was 4.8 meq/L, the LDH (72 h, time 3 day) was 62.4 IU/L and the Na (72 h, time 3 day) was 139.6 meq/L. It also gave a PL (72 h, time 3 day) of 146.8 mg/dL, an RALB (72 h, time 3 day) of 3.8 g/dL and a TBIL (72 h, time 3 day) of 0.3 mg/dL. For the same compound, the TC (72 h, time 3 day) was 75.2 mg/dL, the TG (72 h, time 3 day) was 112.8 mg/dL and the TP (72 h, time 3 day) was 5.7 g/dL. For the same compound, the gamma-GTP (72 h, time 3 day) was 1 IU/L, the TERMINAL_BW ([…], time 7 day) was 253.1 g and the TERMINAL_BW ([…], time 14 day) was 306.2 g. It also gave a TERMINAL_BW ([…], time 28 day) of 398.3 g, an APTT ([…], time 7 day) of 16.7 s and a Bas ([…], time 7 day) of 0%. For the same compound, the Eos ([…], time 7 day) was 1%, the Fbg ([…], time 7 day) was 219.4 mg/dL and the Hb ([…], time 7 day) was 12.8 g/dL. For the same compound, the Ht ([…], time 7 day) was 38.2%, the Lym ([…], time 7 day) was 77.8% and the MCH ([…], time 7 day) was 21.4 pg. The MCHC ([…], time 7 day) was 33.5%, the MCV ([…], time 7 day) was 63.9 fL and the Mono ([…], time 7 day) was 6.8%. The Neu ([…], time 7 day) was 14.4%, the PT ([…], time 7 day) was 11.1 s and the Plat ([…], time 7 day) was 101 x10_4/uL. It also gave an RBC ([…], time 7 day) of 598 x10_4/ul, a Ret ([…], time 7 day) of 6.8% and a WBC ([…], time 7 day) of 131.8 x10_2/uL. The APTT ([…], time 14 day) was 16 s, the Bas ([…], time 14 day) was 0% and the Eos ([…], time 14 day) was 1.2%. For the same compound, the Fbg ([…], time 14 day) was 251.8 mg/dL, the Hb ([…], time 14 day) was 13.9 g/dL and the Ht ([…], time 14 day) was 41.6%. The Lym ([…], time 14 day) was 78%, the MCH ([…], time 14 day) was 20.7 pg and the MCHC ([…], time 14 day) was 33.4%. For the same compound, the MCV ([…], time 14 day) was 62.1 fL, the Mono ([…], time 14 day) was 7% and the Neu ([…], time 14 day) was 14%. For the same compound, the PT ([…], time 14 day) was 11.5 s, the Plat ([…], time 14 day) was 125.4 x10_4/uL and the RBC ([…], time 14 day) was 669.8 x10_4/ul. It also gave a Ret ([…], time 14 day) of 5.3%, a WBC ([…], time 14 day) of 128.6 x10_2/uL and an APTT ([…], time 28 day) of 17.3 s. The Bas ([…], time 28 day) was 0%, the Eos ([…], time 28 day) was 1% and the Fbg ([…], time 28 day) was 229 mg/dL. For the same compound, the Hb ([…], time 28 day) was 14.7 g/dL, the Ht ([…], time 28 day) was 43.6% and the Lym ([…], time 28 day) was 84%. For the same compound, the MCH ([…], time 28 day) was 19.9 pg, the MCHC ([…], time 28 day) was 33.7% and the MCV ([…], time 28 day) was 59.2 fL. For the same compound, the Mono ([…], time 28 day) was 5.2%, the Neu ([…], time 28 day) was 9.8% and the PT ([…], time 28 day) was 11.8 s. The Plat ([…], time 28 day) was 112.4 x10_4/uL, the RBC ([…], time 28 day) was 738.4 x10_4/ul and the Ret ([…], time 28 day) was 2.8%. It also gave a WBC ([…], time 28 day) of 144.2 x10_2/uL, a KIDNEY_L ([…], time 7 day) of 1.1 g and a KIDNEY_R ([…], time 7 day) of 1.1 g. The KIDNEY_TOTAL ([…], time 7 day) was 2.2 g, the KIDNEY_L ([…], time 14 day) was 1.2 g and the KIDNEY_R ([…], time 14 day) was 1.2 g. For the same compound, the KIDNEY_TOTAL ([…], time 14 day) was 2.4 g, the KIDNEY_L ([…], time 28 day) was 1.4 g and the KIDNEY_R ([…], time 28 day) was 1.4 g. It also gave a KIDNEY_TOTAL ([…], time 28 day) of 2.7 g, an LIVER ([…], time 7 day) of 12.3 g and an LIVER ([…], time 14 day) of 14.2 g. For the same compound, the LIVER ([…], time 28 day) was 17.9 g, the A/G ([…], time 7 day) was 1.7 and the ALP ([…], time 7 day) was 813.4 IU/L. It also gave an ALT ([…], time 7 day) of 34.4 IU/L, an AST ([…], time 7 day) of 60.6 IU/L and a BUN ([…], time 7 day) of 19 mg/dL. For the same compound, the CRE ([…], time 7 day) was 0.4 mg/dL, the Ca ([…], time 7 day) was 10.8 mg/dL and the Cl ([…], time 7 day) was 103.2 meq/L. It also gave a DBIL ([…], time 7 day) of 0.006 mg/dL, a GLC ([…], time 7 day) of 205.2 mg/dL and an IP ([…], time 7 day) of 8.1 mg/dL. For the same compound, the K ([…], time 7 day) was 4.4 meq/L, the LDH ([…], time 7 day) was 57 IU/L and the Na ([…], time 7 day) was 137.8 meq/L. The PL ([…], time 7 day) was 160.2 mg/dL, the RALB ([…], time 7 day) was 3.6 g/dL and the TBIL ([…], time 7 day) was 0.4 mg/dL. It also gave a TC ([…], time 7 day) of 85.4 mg/dL, a TG ([…], time 7 day) of 119.6 mg/dL and a TP ([…], time 7 day) of 5.7 g/dL. The gamma-GTP ([…], time 7 day) was 1 IU/L, the A/G ([…], time 14 day) was 1.8 and the ALP ([…], time 14 day) was 806.2 IU/L. For the same compound, the ALT ([…], time 14 day) was 31.2 IU/L, the AST ([…], time 14 day) was 58.8 IU/L and the BUN ([…], time 14 day) was 18.4 mg/dL. The CRE ([…], time 14 day) was 0.6 mg/dL, the Ca ([…], time 14 day) was 10.7 mg/dL and the Cl ([…], time 14 day) was 103.8 meq/L. The DBIL ([…], time 14 day) was 0.018 mg/dL, the GLC ([…], time 14 day) was 198 mg/dL and the IP ([…], time 14 day) was 7.8 mg/dL. For the same compound, the K ([…], time 14 day) was 4.6 meq/L, the LDH ([…], time 14 day) was 81 IU/L and the Na ([…], time 14 day) was 139.6 meq/L. The PL ([…], time 14 day) was 140.2 mg/dL, the RALB ([…], time 14 day) was 3.8 g/dL and the TBIL ([…], time 14 day) was 0.3 mg/dL. The TC ([…], time 14 day) was 70.2 mg/dL, the TG ([…], time 14 day) was 115.2 mg/dL and the TP ([…], time 14 day) was 5.9 g/dL. For the same compound, the gamma-GTP ([…], time 14 day) was 1 IU/L, the A/G ([…], time 28 day) was 1.8 and the ALP ([…], time 28 day) was 563.4 IU/L. The ALT ([…], time 28 day) was 29.4 IU/L, the AST ([…], time 28 day) was 56.8 IU/L and the BUN ([…], time 28 day) was 20.4 mg/dL. It also gave a CRE ([…], time 28 day) of 0.6 mg/dL, a Ca ([…], time 28 day) of 11 mg/dL and a Cl ([…], time 28 day) of 105.4 meq/L. For the same compound, the DBIL ([…], time 28 day) was 0.006 mg/dL, the GLC ([…], time 28 day) was 221.4 mg/dL and the IP ([…], time 28 day) was 7.1 mg/dL. For the same compound, the K ([…], time 28 day) was 4.4 meq/L, the LDH ([…], time 28 day) was 63.6 IU/L and the Na ([…], time 28 day) was 139.6 meq/L. For the same compound, the PL ([…], time 28 day) was 152.6 mg/dL, the RALB ([…], time 28 day) was 3.9 g/dL and the TBIL ([…], time 28 day) was 0.2 mg/dL. The TC ([…], time 28 day) was 73.6 mg/dL, the TG ([…], time 28 day) was 141.4 mg/dL and the TP ([…], time 28 day) was 6.2 g/dL. It also gave a gamma-GTP ([…], time 28 day) of 0.6 IU/L.
